Experimental data: ChEMBL document CHEMBL1154509, “Synthesis and in vitro biological activity of retinyl polyhydroxybenzoates, novel hybrid retinoid derivatives” (Bioorg Med Chem Lett, 2009)
One block for each compound: values may come before it.

Key:
[1] = Anti-aging activity in human dermal fibroblasts assessed as inhibition rate of MMP1 expression at 10 uM relative to control; type: functional; conditions: Fibroblast
[2] = Toxicity against human dermal fibroblasts assessed as cell viability at 10 uM relative to control; type: cell-based, Fibroblast; conditions: read-out: Activity
[3] = molecular target: T1, Tyrosinase (Homo sapiens) (UniProt P14679); assay: Inhibition of tyrosinase at 5 uM
T1 sequence (whole entry): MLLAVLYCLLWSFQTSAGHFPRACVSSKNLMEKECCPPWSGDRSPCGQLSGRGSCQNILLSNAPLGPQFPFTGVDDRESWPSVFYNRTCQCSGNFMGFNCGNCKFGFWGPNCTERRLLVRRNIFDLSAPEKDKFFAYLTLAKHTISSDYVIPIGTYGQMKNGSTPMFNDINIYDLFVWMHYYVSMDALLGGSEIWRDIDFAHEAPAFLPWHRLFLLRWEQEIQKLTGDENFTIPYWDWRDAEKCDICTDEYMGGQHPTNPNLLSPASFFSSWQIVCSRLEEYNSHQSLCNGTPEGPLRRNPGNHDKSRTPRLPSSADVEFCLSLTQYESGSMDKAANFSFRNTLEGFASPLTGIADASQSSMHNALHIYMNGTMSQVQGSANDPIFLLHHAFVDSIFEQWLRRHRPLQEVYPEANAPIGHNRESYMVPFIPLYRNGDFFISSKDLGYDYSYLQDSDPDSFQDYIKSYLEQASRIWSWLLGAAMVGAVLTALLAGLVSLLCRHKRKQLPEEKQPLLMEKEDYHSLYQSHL

[4] = tested on: Fibroblast; assay: Inhibition of melanogenesis in […] at 5 uM; type: functional
[5] = Antioxidant activity assessed as free radical scavenging activity at 5 uM; type: functional
[6] = Antioxidant activity assessed as free radical scavenging activity at 10 uM; type: functional
[7] = Toxicity against human dermal fibroblasts; type: cell-based, Fibroblast
[8] = Thermal stability at 40 degC assessed as compound degradation after 4 weeks by HPLC; type: physicochemical
[9] = tested on: Fibroblast; assay: Increase of collagen synthesis in human dermal fibroblasts at 5 uM; type: functional
[10] = Toxicity against human dermal fibroblasts assessed as cell viability at 200 uM relative to control; type: cell-based, Fibroblast; conditions: read-out: Activity
[11] = Anti-aging activity in human dermal fibroblasts assessed as expression rate of procollagen type 1 formation at 200 uM relative to control; type: functional, Fibroblast
[12] = tested on: Fibroblast; assay: Skin whitening activity in […] assessed as inhibition of melanin formation at 0.002 weight % concentration relative to resveratrol; type: functional
[13] = Anti-aging activity in human dermal fibroblasts assessed as rate of procollagen formation at 0.002 weight % concentration relative to retinol; type: functional, Fibroblast
[14] = Anti-aging activity in human dermal fibroblasts assessed as rate of procollagen formation at 0.001 weight % concentration relative to retinol; type: functional, Fibroblast
[15] = tested on: Fibroblast; assay: Skin whitening activity in […] assessed as inhibition of melanin formation at 0.001 weight % concentration relative to resveratrol; type: functional
[16] = Anti-aging activity in human dermal fibroblasts assessed as expression rate of procollagen type 1 formation at 1 uM relative to control; type: functional, Fibroblast
[17] = Anti-aging activity in human dermal fibroblasts assessed as rate of procollagen formation at 0.0005 weight % concentration relative to retinol; type: functional, Fibroblast
[18] = tested on: B16-F10; assay: Inhibition of rate of melanin formation in mouse B16/F10 cells at 5 uM relative to control; type: functional
[19] = Anti-aging activity in human dermal fibroblasts assessed as inhibition rate of MMP1 expression at 1 uM relative to control; type: functional; conditions: Fibroblast
[20] = Toxicity against human dermal fibroblasts assessed as cell viability at 1 uM relative to control; type: cell-based, Fibroblast; conditions: read-out: Activity
[21] = molecular target: T2, Tyrosinase (Mus musculus) (UniProt P11344); assay: Inhibition of tyrosinase activity in mouse B16/F10 cells at 5 uM relative to control; type: cell-based
T2 sequence (whole entry): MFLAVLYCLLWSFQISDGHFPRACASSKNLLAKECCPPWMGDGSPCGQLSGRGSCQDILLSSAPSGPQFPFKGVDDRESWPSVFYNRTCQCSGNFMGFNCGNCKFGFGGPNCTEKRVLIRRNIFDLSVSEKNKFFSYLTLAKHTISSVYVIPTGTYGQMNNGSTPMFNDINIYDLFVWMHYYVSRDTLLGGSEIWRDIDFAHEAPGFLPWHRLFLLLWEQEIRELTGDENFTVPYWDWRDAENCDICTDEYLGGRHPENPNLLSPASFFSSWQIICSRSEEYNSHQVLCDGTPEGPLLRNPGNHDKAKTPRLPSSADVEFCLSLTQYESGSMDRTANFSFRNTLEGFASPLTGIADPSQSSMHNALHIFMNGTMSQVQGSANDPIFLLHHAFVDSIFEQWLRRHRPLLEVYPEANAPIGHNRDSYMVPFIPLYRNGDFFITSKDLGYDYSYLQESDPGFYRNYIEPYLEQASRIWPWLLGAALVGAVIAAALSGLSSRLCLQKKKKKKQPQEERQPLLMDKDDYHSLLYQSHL

[22] = Toxicity against mouse B16/F10 cells assessed as cell viability at 5 uM relative to control; type: cell-based; conditions: read-out: Activity
[23] = Anti-aging activity in human dermal fibroblasts assessed as expression rate of procollagen type 1 formation at 10 uM relative to control; type: functional, Fibroblast
[24] = Anti-aging activity in human dermal fibroblasts assessed as rate of procollagen formation at 0.005 weight % concentration relative to retinol; type: functional, Fibroblast
[25] = Anti-aging activity in human dermal fibroblasts assessed as rate of procollagen formation at 0.0001 weight % concentration relative to retinol; type: functional, Fibroblast
[26] = Inhibition of elastase at 5 uM
[27] = Inhibition of elastase at 10 uM
[28] = molecular target: T2, Tyrosinase (Mus musculus); assay: Inhibition of tyrosinase activity in mouse B16/F10 cells at 10 ppm relative to control; type: cell-based
[29] = tested on: B16-F10; assay: Inhibition of rate of melanin formation in mouse B16/F10 cells at 10 ppm relative to control; type: functional
[30] = Toxicity against mouse B16/F10 cells assessed as cell viability at 10 ppm relative to control; type: cell-based; conditions: read-out: Activity
[31] = Anti-aging activity in human dermal fibroblasts assessed as expression rate of procollagen type 1 formation at 5 uM relative to control; type: functional, Fibroblast
[32] = Anti-aging activity in human dermal fibroblasts assessed as rate of procollagen formation at 0.0002 weight % concentration relative to retinol; type: functional, Fibroblast
[33] = Anti-aging activity in human dermal fibroblasts assessed as inhibition rate of MMP1 expression at 5 uM relative to control; type: functional; conditions: Fibroblast
[34] = tested on: Fibroblast; assay: Skin whitening activity in […] assessed as inhibition of melanin formation at 0.0002 weight % concentration relative to resveratrol; type: functional
[35] = Toxicity against human dermal fibroblasts assessed as cell viability at 5 uM relative to control; type: cell-based, Fibroblast; conditions: read-out: Activity

SMILES: CC1=C(/C=C/C(C)=C/C=C/C(C)=C/C(=O)O)C(C)(C)CCC1 [TRETINOIN]
inhibition at 10 µM [1]: 59.2%
viability at 10 µM [2]: 105%

SMILES: O=C1O[C@H]([C@@H](O)CO)C(O)=C1O [ASCORBIC ACID]
Activity [5]: 19.1%
viability at 200 µM [10]: 95.4%
Activity [6]: 38.6%
Activity [11]: 127.5%

SMILES: CC(/C=C/C1=CCCCC1(C)C)=C\C=C\C(C)=C\COC(=O)c1ccccc1O
inhibition (INH) [12]: 34%
Activity [13]: 46%
IC50 [7]: 150 µM

SMILES: COc1cc(NC(C)=O)cc(C(=O)OC/C=C(C)/C=C/C=C(C)/C=C/C2=CCCCC2(C)C)c1O
IC50 [7]: < 10 µM
Activity [14]: 15%

SMILES: CC(=O)Oc1ccccc1C(=O)OC/C=C(C)/C=C/C=C(C)/C=C/C1=CCCCC1(C)C
inhibition (INH) [12]: 32%
Activity [13]: 61%
IC50 [7]: 150 µM

SMILES: COc1ccc(O)c(C(=O)OC/C=C(C)/C=C/C=C(C)/C=C/C2=CCCCC2(C)C)c1
inhibition (INH) [15]: 30%
IC50 [7]: 570 µM
Activity [14]: 81%

SMILES: COc1cccc(O)c1C(=O)OC/C=C(C)/C=C/C=C(C)/C=C/C1=CCCCC1(C)C
Activity [24]: 54%
inhibition (INH) [15]: 28%
IC50 [7]: 230 µM

SMILES: CC(/C=C/C1=CCCCC1(C)C)=C\C=C\C(C)=C\COC(=O)c1ccc(O)cc1O
inhibition (INH) [15]: 41%
IC50 [7]: 120 µM
Activity [14]: 26%

SMILES: O=C(O[C@@H]1Cc2c(O)cc(O)cc2O[C@@H]1c1cc(O)c(O)c(O)c1)c1cc(O)c(O)c(O)c1 [EPIGALOCATECHIN GALLATE]
inhibition at 10 µM [1]: 46.7%
viability at 10 µM [2]: 95.2%

SMILES: CC(/C=C/C1=CCCCC1(C)C)=C\C=C\C(C)=C\COC(=O)c1cc(O)c2ccccc2c1O
Activity [17]: 37%
inhibition (INH) [15]: 18%
IC50 [7]: 420 µM

Now from value to compound, other results behind:

inhibition [3]: 36.2%
SMILES: Oc1ccc(/C=C/c2cc(O)cc(O)c2)cc1 [RESVERATROL]
inhibition at 5 µM [4]: 25.5%
Activity [5]: 5.6%
Activity [6]: 16.7%
IC50 [7]: 900 µM

degraded at 672 h ([8]; read-out: Activity): 70%
SMILES: CC1=C(/C=C/C(C)=C/C=C/C(C)=C/CO)C(C)(C)CCC1 [RETINOL]
Activity [9]: 33.4%
IC50 [7]: 50 µM

inhibition [21]: 45.4%
SMILES: CC(/C=C/C1=CCCCC1(C)C)=C\C=C\C(C)=C\COC(=O)c1c(O)cccc1O
Activity [16]: 85.5%
Activity [17]: 102%
inhibition at 5 µM [18]: 12.7%
inhibition at 1 µM [19]: -63%
inhibition (INH) [15]: 112%
viability at 1 µM [20]: 88.1%
IC50 [7]: 14 µM
viability at 5 µM [22]: 102%

inhibition [21]: 31.3%
SMILES: CC(/C=C/C1=CCCCC1(C)C)=C\C=C\C(C)=C\COC(=O)c1cc(O)ccc1O
Activity [23]: 78.7%
Activity [17]: 55%
inhibition at 10 µM [1]: -32.2%
inhibition at 5 µM [18]: 25.8%
inhibition (INH) [15]: 95%
viability at 10 µM [2]: 91.8%
IC50 [7]: 14 µM
viability at 5 µM [22]: 99.7%

inhibition [21]: 38.1%
SMILES: COc1cccc(C(=O)OC/C=C(C)/C=C/C=C(C)/C=C/C2=CCCCC2(C)C)c1O
Activity [23]: 70%
Activity [17]: 116%
inhibition at 10 µM [1]: 16.9%
inhibition at 5 µM [18]: 16.2%
inhibition (INH) [15]: 22%
viability at 10 µM [2]: 126%
IC50 [7]: 27 µM
viability at 5 µM [22]: 107%

inhibition [3]: -1.5%
SMILES: OC[C@H]1O[C@@H](Oc2ccc(O)cc2)[C@H](O)[C@@H](O)[C@@H]1O [ARBUTIN]
inhibition at 5 µM [4]: 5.5%

inhibition [21]: 41.9%
SMILES: COc1cc(O)c(C(=O)OC/C=C(C)/C=C/C=C(C)/C=C/C2=CCCCC2(C)C)c(O)c1
Activity [23]: 89.2%
Activity [17]: 55%
inhibition at 10 µM [1]: -17.4%
inhibition at 5 µM [18]: 9.5%
inhibition (INH) [15]: 95%
viability at 10 µM [2]: 92.6%
IC50 [7]: 14 µM
viability at 5 µM [22]: 102%

inhibition [21]: 36.7%
SMILES: CC(/C=C/C1=CCCCC1(C)C)=C\C=C\C(C)=C\COC(=O)c1cccc(O)c1O
Activity [25]: 66%
inhibition at 5 µM [18]: 18.6%
inhibition (INH) [15]: 105%
viability at 1 µM [20]: 71.8%
IC50 [7]: < 10 µM
viability at 5 µM [22]: 97%

inhibition [26]: 10.3%
inhibition [27]: 14.1%
SMILES: C[C@H]1[C@H](C)CC[C@]2(C(=O)O)CC[C@]3(C)C(=CC[C@@H]4[C@@]5(C)CC[C@H](O)C(C)(C)[C@@H]5CC[C@]43C)[C@H]12 [URSOLIC ACID]
IC50 [7]: 3.5 µM

inhibition [28]: 46.9%
SMILES: COc1cc(/C=C/C(=O)Oc2cc(C)ccc2C(C)C)cc(OC)c1OC
inhibition at 10 ppm [29]: 39.3%
viability at 10 ppm [30]: 95.4%

inhibition [3]: 2.5%
Stability ([8]; 672 h): Stable
inhibition [26]: 12.3%
inhibition [21]: 49.6%
inhibition [27]: 15.3%
SMILES: CC(/C=C/C1=CCCCC1(C)C)=C\C=C\C(C)=C\COC(=O)c1cc(O)c(O)c(O)c1
Activity [31]: 115.9%
Activity [32]: 91%
inhibition at 5 µM [4]: 18.6%
inhibition at 5 µM [33]: -19.3%
Activity [5]: 31.1%
Activity [6]: 62.8%
inhibition (INH) [34]: 73%
Activity [9]: 13.5%
inhibition at 5 µM [18]: 27.5%
viability at 5 µM [35]: 84.2%
IC50 [7]: 35 µM
viability at 5 µM [22]: 83.9%
